In patent publication US20030207792A1, “Treating cancer” (priority 2002, published 2003):
Where two headings read alike, the source gives them in different places.

What was measured:
Type in all cases: cell-based
HCT116 cells [1] = assay: TUNEL assay (ApopTag) for apoptosis 48 h after transfection
Protocol: (§1) Sense and antisense phosphorothionate oligonucleotide with the sequence set out in SEQ1 and SEQ2 respectively were synthesised in a 380B DNA synthesiser. Each oligonucleotide was premixed with lipofectin reagent and diluted in DMEM (Gibco). 6 cm plates of HCT116 cells at 40-50% confluence were rinsed once with 4 ml serum free DMEM and transfected with the oligonucleotides at a final concentration of 1 μM and the lipofectin reagent at a final concentration of 19 μg/ml according to the manufacturer's instructions (Life Technologies Inc., Gaithersburg, Md.). After 4 hours, Foetal Calf Serum (Gibco) was added to a final concentration of 10%. A lipofectin only transfection was performed as a control. Cell extracts were harvested after 48 h and examined by Western blot analysis with a pRb antibody. Equal loading of protein samples was confirmed by Coomassie blue staining or by immunoreactivity with an anti-actin antibody (Sigma). The intensities of the Rb bands were quantised with an image scanner (Molecular Dynamics). […] The treatment with the sense oligonucleotide led to about a 5% reduction in the level of pRb. […] Apoptosis in the cultures 48 h after transfection was tested for using the TUNEL assay. An in situ apoptosis detection kit ApopTag (Oncor, Gaithersburg, Md.) was used as recommended by the manufacturer. The percentage of TUNEL positive cells was 1.5+/−1% for the lipofectin treated culture, 3+/−0.5% for the culture transfected with the sense oligonucleotide and 18+/−0.5% for the culture transfected with the antisense oligonucleotide. Thus, the sense oligonucleotide caused about a two-fold increase in apoptosis, but the antisense oligonucleotide caused over a 10-fold increase in apoptosis. As the antisense oligonucleotide inhibits growth and increases apoptosis, it is thus an effective chemotherapeutic agent.

HCT116 cells [2] = assay: Growth curves of transfected HCT116 cultures; details: oligonucleotide 1 μM with lipofectin
Protocol: as §1, with “The percentage of TUNEL positive cells was 1.5+/−1% for the lipofectin treated culture, 3+/−0.5% for the culture transfected with the sense oligonucleotide and 18+/−0.5% for the culture transfected with the antisense oligonucleotide. Thus, the sense oligonucleotide caused about a two-fold increase in apoptosis, but the antisense oligonucleotide caused over a 10-fold increase in apoptosis. As the antisense oligonucleotide inhibits growth and increases apoptosis, it is thus an effective chemotherapeutic agent.” left out

pRb = assay: Western blot analysis of pRb level in HCT116 cells 48 h after oligonucleotide transfection; details: oligonucleotide 1 μM with lipofectin 19 μg/ml, extracts after 48 h, Western blot band intensity
Protocol: as §1, with “The percentage of TUNEL positive cells was 1.5+/−1% for the lipofectin treated culture, 3+/−0.5% for the culture transfected with the sense oligonucleotide and 18+/−0.5% for the culture transfected with the antisense oligonucleotide. Thus, the sense oligonucleotide caused about a two-fold increase in apoptosis, but the antisense oligonucleotide caused over a 10-fold increase in apoptosis. As the antisense oligonucleotide inhibits growth and increases apoptosis, it is thus an effective chemotherapeutic agent.” left out

5′-GTCATGCCGCCCAAAACC-3′ (phosphorothioate, further chemistry not given here) [sense oligonucleotide, reference compound]
fold increase in apoptosis (HCT116 cells [1]): two-fold

5′-GGTTTTGGGCGGCATGAC-3′ (DNA, all phosphorothioate, methylation of C not given here) [antisense oligonucleotide]
effect on growth (growth curves) compared with the lipofectin-treated control culture (HCT116 cells [2]): displayed growth inhibition | percentage of TUNEL positive cells (HCT116 cells [1]; HCT116 cells, 48 h after transfection, oligonucleotide 1 μM): 18+/−0.5% | fold increase in apoptosis (HCT116 cells [1]; HCT116 cells, 48 h after transfection, versus lipofectin treated culture): > 10 fold | level of pRb expression relative to the control culture treated only with lipofectin (pRb): about 30%
